These results are taken from patent EP4574817A1 (LoQus23 Therapeutics Limited, priority 2023, dated 2025).

The IC50 is the midpoint of a concentration-inhibition curve. Low values mean greater potency, high ones weaker potency.

T1 sequence (P43246 whole entry): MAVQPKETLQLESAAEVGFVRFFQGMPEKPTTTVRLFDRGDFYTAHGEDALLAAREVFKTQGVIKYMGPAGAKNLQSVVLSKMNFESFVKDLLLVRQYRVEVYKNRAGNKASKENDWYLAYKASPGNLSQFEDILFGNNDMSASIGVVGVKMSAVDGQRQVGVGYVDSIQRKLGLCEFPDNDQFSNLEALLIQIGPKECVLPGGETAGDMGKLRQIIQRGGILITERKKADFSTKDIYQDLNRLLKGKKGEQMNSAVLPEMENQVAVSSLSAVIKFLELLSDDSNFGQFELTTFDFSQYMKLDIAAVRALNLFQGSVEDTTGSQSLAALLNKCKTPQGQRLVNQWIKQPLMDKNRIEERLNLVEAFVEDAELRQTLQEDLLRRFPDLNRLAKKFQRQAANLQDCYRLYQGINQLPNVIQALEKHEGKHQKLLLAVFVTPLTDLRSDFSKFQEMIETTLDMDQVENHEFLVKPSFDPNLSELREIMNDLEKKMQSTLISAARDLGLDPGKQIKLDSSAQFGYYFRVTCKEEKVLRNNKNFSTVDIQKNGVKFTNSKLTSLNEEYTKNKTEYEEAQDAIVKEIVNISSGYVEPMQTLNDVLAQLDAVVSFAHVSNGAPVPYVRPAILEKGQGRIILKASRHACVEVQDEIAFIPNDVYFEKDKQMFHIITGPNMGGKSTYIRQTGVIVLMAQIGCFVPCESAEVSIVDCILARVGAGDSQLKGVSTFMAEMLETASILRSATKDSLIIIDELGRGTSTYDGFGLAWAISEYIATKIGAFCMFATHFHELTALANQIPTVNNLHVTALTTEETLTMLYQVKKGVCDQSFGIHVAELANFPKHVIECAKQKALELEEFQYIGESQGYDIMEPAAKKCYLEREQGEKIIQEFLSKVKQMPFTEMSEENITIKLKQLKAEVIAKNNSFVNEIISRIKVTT
T1 sequence (P20585 whole entry): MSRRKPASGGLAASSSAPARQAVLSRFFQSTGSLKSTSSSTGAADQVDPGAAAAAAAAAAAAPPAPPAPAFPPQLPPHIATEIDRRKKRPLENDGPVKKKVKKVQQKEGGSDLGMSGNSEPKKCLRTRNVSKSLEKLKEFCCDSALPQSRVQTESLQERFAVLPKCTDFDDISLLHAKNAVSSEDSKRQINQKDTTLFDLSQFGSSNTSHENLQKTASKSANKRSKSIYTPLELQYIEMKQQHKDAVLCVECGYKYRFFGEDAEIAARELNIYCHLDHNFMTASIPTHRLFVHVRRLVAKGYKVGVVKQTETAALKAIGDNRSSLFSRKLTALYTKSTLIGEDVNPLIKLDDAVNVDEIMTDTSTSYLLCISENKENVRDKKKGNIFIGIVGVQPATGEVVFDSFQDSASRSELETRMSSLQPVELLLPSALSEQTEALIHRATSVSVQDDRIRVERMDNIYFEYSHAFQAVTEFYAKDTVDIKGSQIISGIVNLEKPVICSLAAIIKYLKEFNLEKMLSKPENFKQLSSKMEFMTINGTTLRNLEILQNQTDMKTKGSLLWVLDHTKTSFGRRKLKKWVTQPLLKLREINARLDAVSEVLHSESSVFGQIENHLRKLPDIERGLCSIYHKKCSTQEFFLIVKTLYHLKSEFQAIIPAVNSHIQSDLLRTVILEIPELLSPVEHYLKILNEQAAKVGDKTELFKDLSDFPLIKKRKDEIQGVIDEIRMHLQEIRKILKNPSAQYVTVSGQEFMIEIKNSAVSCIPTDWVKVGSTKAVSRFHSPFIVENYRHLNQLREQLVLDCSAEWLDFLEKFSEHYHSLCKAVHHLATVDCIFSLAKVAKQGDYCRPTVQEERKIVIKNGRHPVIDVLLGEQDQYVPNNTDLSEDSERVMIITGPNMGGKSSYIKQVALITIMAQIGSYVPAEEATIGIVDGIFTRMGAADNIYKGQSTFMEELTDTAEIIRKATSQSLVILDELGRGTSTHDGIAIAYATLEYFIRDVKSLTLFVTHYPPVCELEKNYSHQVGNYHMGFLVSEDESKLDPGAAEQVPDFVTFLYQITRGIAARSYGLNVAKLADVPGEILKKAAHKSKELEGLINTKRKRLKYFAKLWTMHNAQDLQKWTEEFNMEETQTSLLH

This experiment has as its target T1, MutSβ (Homo sapiens, UniProt P20585+P43246).
T1 construct: purchased AMRI
Kind of experiment: MutSβ ADP Glo Assay. The experiment is classed as biochemical. The settings on record: 20nM MutSβ, 30nM CAG DNA, 25 µM ATP, 2 hours at room temperature. On the procedure:
Biological Example A - MutSβ Assay
• MutSβ (supplied by AMRI) stored at -70°C • ADP Glo Kinase Assay Kit (Promega: V9102) stored at -20°C • ATP (supplied within the ADP Glo Kit) stored at -20°C • 1M KCI (Sigma Aldrich: P9333) stored at 2-8°C • 1 M HEPES pH 7.5 (Gibco: M15630-080) stored at 2-8°C • 1M MgCl2 (Sigma Aldrich: M1028-100mL) stored at 2-8°C • Tween-20 (Sigma Aldrich: P1379) (10% solution) stored at 2-8°C • 500mM DTT (Sigma Aldrich: 10197777001) stored at -20°C • CAG loop DNA for MutSβ (made in house) stored at -20°C • MilliQ water stored at room temperature
• 1. Prepare the buffer fresh each day • 2. Take the enzyme from the freezer, thaw in room temperature water and centrifuge at 13,000 rpm for 10 minutes at 2-8C, then make up enzyme and ATP stocks • 3. Quality Control the multidrop head to a %CV of <2% • 4. Add 3µL of 33.34nM MutSβ and 50.01nM CAG looped DNA solution […] to each well in columns 1 and 3-23 of the plate • 5. Pre-incubate the MutSβ and buffer mix for 10 minutes with the compounds • 6. Wash the multidrop head through with MilliQ water (for at least 30 seconds) • 7. Add 3µL of MutSβ Assay buffer (without enzyme) to columns 2 and 24 for the vehicle controls • 8. Wash the multidrop head through with MilliQ water (for at least 30 seconds) • 9. Add 2µL of 62.5µM ATP to each well of the whole plate, then wash with MilliQ water (for a minimum of 30 seconds) • 10. Centrifuge plate for 1 minute at 1000 rpm • 11. Incubate for 2 hours at room temperature • 12. Add 5µL of ADP Glo reagent to each well of the whole plate and wash the multidrop head with MilliQ water (for a minimum of 30 seconds) • 13. Incubate for 40 minutes at room temperature (minimum requirement) • 14. Add 10µL of Kinase Detection Reagent to each well of the whole plate • 15. Wash the multidrop head with MilliQ water more than 1 minute and then dry • 16. Remove the head and put the cover back on for overnight storage • 17. Incubate for 30 minutes at room temperature (minimum requirement) • 18. Read on a microplate reader
A general note: ADP-Glo first removes unused ATP, then detects ADP through luciferase.
For the molecule “2-((4-methyl-5-(4-methylbenzyl)thiazol-2-yl)amino)-2-oxoethyl isobutylsulfamate [Example 17]”, the half-maximal inhibitory concentration (IC50) fell in the range of 10 to 50 µM. Next, `Cc1ccc(Cc2sc(NC(=O)COS(N)(=O)=O)nc2C)cc1` [Example 3, 2-((4-methyl-5-(4-methylbenzyl)thiazol-2-yl)amino)-2-oxoethyl sulfamate]: 1 to 10 µM; `Cc1nc(NC(=O)COS(=O)(=O)N(C)C)sc1Cc1ccc(F)cc1` [Example 4, 2-((5-(4-fluorobenzyl)-4-methylthiazol-2-yl)amino)-2-oxoethyl dimethylsulfamate]: 0.5 to 1 µM; `CNS(=O)(=O)OCC(=O)Nc1nc(C)c(Cc2ccc3ccccc3c2)s1` [Example 5, 2-((4-methyl-5-(naphthalen-2-ylmethyl)thiazol-2-yl)amino)-2-oxoethyl methylsulfamate]: 1 to 10 µM. With `Cc1ccc(Cc2sc(NC(=O)COS(=O)(=O)NC3CC3)nc2C)cc1` [Example 6, 2-((4-methyl-5-(4-methylbenzyl)thiazol-2-yl)amino)-2-oxoethyl cyclopropylsulfamate] the figure was 1 to 10 µM; with `CNS(=O)(=O)OCC(=O)Nc1nc(C)c(Cc2ccc(F)c(Cl)c2)s1` [Example 7, 2-((5-(3-chloro-4-fluorobenzyl)-4-methylthiazol-2-yl)amino)-2-oxoethyl methylsulfamate], at most 0.5 µM; with `COCCNS(=O)(=O)OCC(=O)Nc1nc(C)c(Cc2cccc(Cl)c2)s1` [Example 8, 2-((5-(3-chlorobenzyl)-4-methylthiazol-2-yl)amino)-2-oxoethyl (2-methoxyethyl)sulfamate], 0.5 to 1 µM. With `Cc1ccc(Cc2sc(NC(=O)COS(=O)(=O)N3CCOCC3)nc2C)cc1` [Example 9, 2-((4-methyl-5-(4-methylbenzyl)thiazol-2-yl)amino)-2-oxoethyl morpholine-4-sulfonate] the figure was 0.5 to 1 µM; with `CNS(=O)(=O)OCC(=O)Nc1nc(C)c(Cc2ccccc2C)s1` [Example 11, 2-((4-methyl-5-(2-methylbenzyl)thiazol-2-yl)amino)-2-oxoethyl methylsulfamate], 10 to 50 µM.

With `Cc1nc(NC(=O)COS(=O)(=O)N(C)C)sc1Cc1cccc(C(F)(F)F)c1` [Example 13, 2-((4-methyl-5-(3-(trifluoromethyl)benzyl)thiazol-2-yl)amino)-2-oxoethyl dimethylsulfamate], the IC50 is 1 to 10 µM.

Regarding `CNS(=O)(=O)OCC(=O)Nc1nc(C)c(Cc2ccccc2Cl)s1` [Example 16, 2-((5-(2-chlorobenzyl)-4-methylthiazol-2-yl)amino)-2-oxoethyl methylsulfamate], the IC50 fell in the range of 1 to 10 µM.

`CCc1nc(NC(=O)COS(=O)(=O)NC)sc1Cc1ccc(C)cc1` [Example 18, 2-((4-ethyl-5-(4-methylbenzyl)thiazol-2-yl)amino)-2-oxoethyl methylsulfamate]: the IC50 was in the range of 1 to 10 µM. The molecule `Cc1ccc(Cc2sc(NC(=O)COS(=O)(=O)N(C)C)nc2C)cc1` [Example 20, 2-((4-methyl-5-(4-methylbenzyl)thiazol-2-yl)amino)-2-oxoethyl dimethylsulfamate] showed an IC50 of 1 to 10 µM.

`Cc1ccc(Cc2sc(NC(=O)COS(=O)(=O)N3CC(F)C3)nc2C)cc1` [Example 21, 2-((4-methyl-5-(4-methylbenzyl)thiazol-2-yl)amino)-2-oxoethyl 3-fluoroazetidine-1-sulfonate] gave an IC50 of 0.5 to 1 µM. `Cc1nc(NC(=O)COS(=O)(=O)N(C)C)sc1Cc1ccccc1F` [Example 22, 2-((5-(2-fluorobenzyl)-4-methylthiazol-2-yl)amino)-2-oxoethyl dimethylsulfamate] yielded an IC50 of 1 to 10 µM.

As for `Cc1ccc(Cc2sc(NC(=O)COS(=O)(=O)NC(C)C)nc2C)cc1` [Example 23, 2-((4-methyl-5-(4-methylbenzyl)thiazol-2-yl)amino)-2-oxoethyl isopropylsulfamate], the IC50 is 1 to 10 µM. With `CNS(=O)(=O)OCC(=O)Nc1nc(C)c(Cc2cccc(C)c2)s1` [Example 24, 2-((4-methyl-5-(3-methylbenzyl)thiazol-2-yl)amino)-2-oxoethyl methylsulfamate] the figure was 1 to 10 µM; with `Cc1ccc(Cc2sc(NC(=O)COS(=O)(=O)N3CCC3)nc2C)cc1` [Example 25, 2-((4-methyl-5-(4-methylbenzyl)thiazol-2-yl)amino)-2-oxoethyl azetidine-1-sulfonate], at most 0.5 µM. `CNS(=O)(=O)OCC(=O)Nc1nc(C)c(Cc2ccc(OC)cc2)s1` [Example 26, 2-((5-(4-methoxybenzyl)-4-methylthiazol-2-yl)amino)-2-oxoethyl methylsulfamate] returned a half-inhibitory concentration (IC50) of 1 to 10 µM. Next, `Cc1nc(NC(=O)COS(=O)(=O)N(C)C)sc1Cc1ccccc1` [Example 28, 2-((5-benzyl-4-methylthiazol-2-yl)amino)-2-oxoethyl dimethylsulfamate]: 1 to 10 µM; `COCCN(C)S(=O)(=O)OCC(=O)Nc1nc(C)c(Cc2ccc(C)cc2)s1` [Example 29, 2-((4-methyl-5-(4-methylbenzyl)thiazol-2-yl)amino)-2-oxoethyl (2-methoxyethyl)(methyl)sulfamate]: 0.5 to 1 µM.

In turn, `CNS(=O)(=O)OCC(=O)Nc1nc(C)c(Cc2ccc(Cl)cc2)s1` [Example 30, 2-((5-(4-chlorobenzyl)-4-methylthiazol-2-yl)amino)-2-oxoethyl methylsulfamate] gave an IC50 of 1 to 10 µM. With `Cc1ccc(Cc2sc(NC(=O)COS(=O)(=O)N3CCCC3)nc2C)cc1` [Example 31, 2-((4-methyl-5-(4-methylbenzyl)thiazol-2-yl)amino)-2-oxoethyl pyrrolidine-1-sulfonate] the figure was 1 to 10 µM. Next, `CNS(=O)(=O)OCC(=O)Nc1nc(C)c(Cc2ccc(C(F)(F)F)cc2)s1` [Example 32, 2-((4-methyl-5-(4-(trifluoromethyl)benzyl)thiazol-2-yl)amino)-2-oxoethyl methylsulfamate]: 1 to 10 µM; `CNS(=O)(=O)OCC(=O)Nc1nc(C)c(Cc2ccc(C(C)C)cc2)s1` [Example 33, 2-((5-(4-isopropylbenzyl)-4-methylthiazol-2-yl)amino)-2-oxoethyl methylsulfamate]: 10 to 50 µM. With `Cc1nc(NC(=O)COS(=O)(=O)N(C)C)sc1CCc1ccccc1` [Example 35, 2-((4-methyl-5-phenethylthiazol-2-yl)amino)-2-oxoethyl dimethylsulfamate] the figure was 10 to 50 µM. In turn, `CNS(=O)(=O)OCC(=O)Nc1nc(C2CC2)c(Cc2ccc(C)cc2)s1` [Example 36, 2-((4-cyclopropyl-5-(4-methylbenzyl)thiazol-2-yl)amino)-2-oxoethyl methylsulfamate] came in with an IC50 of 1 to 10 µM.

As to `CNS(=O)(=O)OCC(=O)Nc1nc(C(C)C)c(Cc2ccc(C)cc2)s1` [Example 37, 2-((4-isopropyl-5-(4-methylbenzyl)thiazol-2-yl)amino)-2-oxoethyl methylsulfamate], the half-inhibitory concentration (IC50) was 10 to 50 µM.

With `CNS(=O)(=O)OCC(=O)Nc1nc(C)c(CCc2ccc(Cl)cc2)s1` [Example 38, 2-((5-(4-chlorophenethyl)-4-methylthiazol-2-yl)amino)-2-oxoethyl methylsulfamate], the concentration for half-maximal inhibition (IC50) was 10 to 50 µM. With `CCCNS(=O)(=O)OCC(=O)Nc1nc(C)c(Cc2ccc(C)cc2)s1` [Example 41, 2-((4-methyl-5-(4-methylbenzyl)thiazol-2-yl)amino)-2-oxoethyl propylsulfamate] the figure was 1 to 10 µM.

Turning to `Cc1ccc(Cc2sc(NC(=O)COS(=O)(=O)N(C)Cc3ccccc3)nc2C)cc1` [Example 42, 2-((4-methyl-5-(4-methylbenzyl)thiazol-2-yl)amino)-2-oxoethyl benzyl(methyl)sulfamate], the IC50 lay within 1 to 10 µM. `Cc1ccc(Cc2sc(NC(=O)COS(=O)(=O)NC(C)(C)C)nc2C)cc1` [Example 43, 2-((4-methyl-5-(4-methylbenzyl)thiazol-2-yl)amino)-2-oxoethyl tert-butylsulfamate] gave an IC50 of 10 to 50 µM. Next, `CNS(=O)(=O)OCC(=O)Nc1nc(C(F)(F)F)c(Cc2ccc(C)cc2)s1` [Example 44]: 1 to 10 µM; `Cc1ccc(Cc2sc(NC(=O)COS(=O)(=O)NCc3ccccc3)nc2C)cc1` [Example 45, 2-((4-methyl-5-(4-methylbenzyl)thiazol-2-yl)amino)-2-oxoethyl benzylsulfamate]: 1 to 10 µM; `CNS(=O)(=O)OCC(=O)Nc1nc(C)c(Cc2ccc(C)cc2)s1` [Example 47, 2-((4-methyl-5-(4-methylbenzyl)thiazol-2-yl)amino)-2-oxoethyl methylsulfamate]: 1 to 10 µM.
